Source: article PMC5642494 (Oncotarget, 2017)

Tests used:
[1] = system: HR+ and HR- breast cancer cell lines; test: Proliferation after washouts (EdU Click-iT) in breast cancer lines; type: cell-based, human; settings: HR+ versus HR- breast cancer cell lines; exposure 2 hr, 24 hr or 72 hrs followed by washout
Method: Images were SA-β-galactosidase immunocytochemical labeling taken by fluorescent microscopy using a Leica DMiL. […] SA-β-gal Cell samples were lysed after treatment with expression was determined using the Senescence Cells 100 μL lysis buffer and transferred to a 96-well plate. Histochemical Staining Kit (Sigma, CS0030) following 30 μL of each sample were transferred into deep well the vendor 's manual. Images were taken at 100x by bright plates using TECAN-EVO Workstation. Samples were field microscopy (Leica DMiL). treated for derivatization of the metabolites of interest and internal standards. For this, 50 μL of derivatization reagent Proliferation studies after washouts (EdU Click- and 80 μL of internal standard (IS, SupplementaryTable iT®) 1), were added with multidrop, plates were vortexed for 5 mins and let sit for one hour at 4 °C. The IS used were the Cells were plated onto poly-D-lysine D or 13C-labeled commercial analogues of nine of the ten coated 96-well plates at a density of 2,000-6,000 metabolites, prepared at 25 μM in water (Supplementary viable cells per well, and treated with abemaciblib or Table 1). The derivatization reagents (from Sigma), […] washout schedule shown on Supplementary Figure 1A. […] EdU Samples were analyzed by LC-MS/MS under the detection was performed using the Click-iT High Content conditions described below. […] Cell images were captured using a Cellomics Arrayscan VTI and analyzed Analysis of the derivatized-extracted samples with the Target Activation bio-application V.3 reading in 4 was carried out with an Agilent 6460 Triple Quadrupole channels at a magnification of 10X. […] The software relative levels and sub-cellular localization of EdU were for data collection and treatment was Agilent Masshunter determined through the respective intensities and locations Workstation. Mobile phases for chromatography were: of Alexa-488 fluorescence. mobile phase A: formic acid (5 mM) and ammonium formate (10 mM) in water; mobile phase B: acetonitrile. […]

MCF7 cells = test: Multiplexed cell number, β-gal and TUNEL in MCF7; type: cell-based, human; settings: 0.125 µM or 0.5 µM, 1-5 DT
Method: The viable cell number was determined by PI staining, the % of β-gal positive cells was determined using an antibody to β-gal, and the % of Tunel positive cells was determined by the incorporation of labelled dUTP. The data are plotted as the mean (+/- SD) of 2 experiments for CDK4 and CDK6 inhibitor treatment, and the mean of 6 experiments (+/- SD) for untreated samples. The duration of treatment is plotted along the x-axis in doubling times (DT) for MCF7 cells.
After treatment, cells were fixed, washed with PBS, permeabilized and β-gal was detected using anti-β-galactosidase antibody; for multiplexed assays, TUNEL staining was carried out using Roche TUNEL reagents as indicated above. Nuclei were also stained with PI for total cell counting. Plates were read in an Acumen Explorer Ex3 (TTP Labtech) and raw data were analyzed with Cellista software. Outputs were expressed as percentages of each identified subpopulation 1) positive β-gal, and 2) total cell number. The percentages of β-gal positive cells, TUNEL positive cells, and cell numbers were plotted in Microsoft Excel.

| Compound | DNA synthesis / proliferation as measured by EdU incorporation [1] | TUNEL staining (MCF7 cells) | percentage of cells with β-gal staining compared with abemaciclib (MCF7 cells) |
| --- | --- | --- | --- |
| CC(=O)c1c(C)c2cnc(Nc3ccc(N4CCNCC4)cn3)nc2n(C2CCCC2)c1=O [palbociclib] | decrease in proliferation preferentially for HR+ cell lines; however, this effect was only observed after longer treatment times | only minor increases in TUNEL staining were observed and only after longer treatment times | lower |
| CN(C)C(=O)c1cc2cnc(Nc3ccc(N4CCNCC4)cn3)nc2n1C1CCCC1 [ribociclib] |  | only minor increases in TUNEL staining were observed and only after longer treatment times | lower |
